Experiments:
CMV promoter = conditions: L. D. Dion et al., Virology 231 (1997); cited from earlier work
ERβ = molecular target: T1, ERβ (Homo sapiens, UniProt Q92731); assay: ERE TATA LUC reporter in COS-7 cells transfected with ERβ; type: cell-based; conditions: FIG. 9
T1 construct: FLAG; expressed in transfected cells; host or cells: COS-7
Source text: FIG. 9. Transient transfection of COS-7 cells using the ERE reporter vector ERE TATA LUC and expression vectors FLAG […] and FLAG HES-1 and treated with E2 and the histone deacetylase inhibitor Tricostatin A (TSA).

[1] = molecular target: T2, estrogen receptor α (ERα) (Homo sapiens, UniProt P03372); assay: ERE TATA LUC reporter in COS-7 cells transfected with ERα; type: cell-based
T2 construct: FLAG; expressed in transfected cells; host or cells: COS-7
T2 sequence (P03372 1-595): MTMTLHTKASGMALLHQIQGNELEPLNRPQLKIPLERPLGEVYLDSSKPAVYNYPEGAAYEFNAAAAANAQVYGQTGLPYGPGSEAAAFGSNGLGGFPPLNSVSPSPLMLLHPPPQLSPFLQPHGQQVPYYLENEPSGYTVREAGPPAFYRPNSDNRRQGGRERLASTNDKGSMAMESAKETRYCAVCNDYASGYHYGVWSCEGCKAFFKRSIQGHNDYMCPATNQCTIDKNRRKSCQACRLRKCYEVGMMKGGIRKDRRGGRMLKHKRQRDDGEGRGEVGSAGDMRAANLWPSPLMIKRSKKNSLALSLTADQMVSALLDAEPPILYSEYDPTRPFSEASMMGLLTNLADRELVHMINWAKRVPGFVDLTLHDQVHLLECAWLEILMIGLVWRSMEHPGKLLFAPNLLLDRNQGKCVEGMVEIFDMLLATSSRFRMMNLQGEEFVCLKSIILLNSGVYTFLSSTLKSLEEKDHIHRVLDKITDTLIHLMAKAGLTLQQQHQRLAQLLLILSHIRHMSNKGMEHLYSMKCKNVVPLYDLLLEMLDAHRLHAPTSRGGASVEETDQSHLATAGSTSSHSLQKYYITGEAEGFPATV
Experimental: FIG. 5. Transfection of COS-7 cells with 3X ERE TATA LUC 1 μg and 100 ng of pcDNA3 FLAG ERα.
FIG. 8. Transient transfection of COS-7 cells using the ERE reporter vector ERE TATA LUC and expression vectors FLAG ERα and FLAG HES-1 and treated with E2 and the histone deacetylase inhibitor Trichostatin A (TSA).
Human ERα was epitope tagged with the artificial “FLAG” epitope using PCR cloning. The VP16 activation domain was fused to the N-tenninus of rat HES-1.

HES-1 [2] = assay: Western blot of HES-1 protein in nuclear extracts of breast cancer cell lines; type: cell-based; conditions: for effect on 17β-estradiol-mediated down regulation of HES-1 protein: antiestrogen together with 17β-estradiol, FIG. 1C
Experimental: FIG. 1(B) Regulation of HES-1 by 17β-estradiol in breast cancer cell lines; 50 μg of nuclear extract protein was used;
(§1) T47D cells were cultured in a 1:1 mixture of Hams F 12 and DME with 10% fetal bovine serum, MCF-7, MDA-MB-231 and COS-7 cells were cultured in DME with 10% fetal bovine serum. Before experiments with estrogen, the media were switched and phenol red free and DCC charcoal treated with serum were used. Culture conditions were set at 37° C., 5% CO2 and 100% humidity. For creation of tetracycline inducible stably transfected clones the tet-regulated expression system from Bibco BRL was used. A puromycin resistance gene was cloned into pTet TAk. T47D cells were then transfected with lipofectin (GibcoBRL) according to the manufacturer's instructions. Transfectants were selected with puromycin at 1 μg/ml. […] Transfectants were selected using G418 (Calbiochem) at 500 μg/ml. Cells lines stably transfected with tetracycline regulated expression constructs were grown in the presence of 1 μg/ml of tetracycline. At the time of induction the medium was removed and the cells were washed with PBS two times before adding new medium without tetracycline.
Nuclear extract and RNA preparation was carried out according to the protocol by Schreiber et al (E. Schreiber, et al., Nucleic Acids Res 17, 6419 (1989)) except that PBS was used instead of TBS and the following inhibitors were added: leupeptin at 1 μg/ml, PMSF at 0.2 mM, […] Na3VO4, 1 mM NaPPi, 1 mM NaF, 100 μM Na2MO4 (all from Sigma). Nuclear extracts were prepared from cells grown to a confluency of 60%-70% on a 150 mm culture dish. Protein content was determined by Bradford assay (BioRad).
(§2) Two peptides with identical sequence parts of HES-1 protein were synthesised and simultaneously injected into one rabbit (Genosys). The peptides were […] […] and […]. For Western blots, 100 μg of nuclear extract was separated on a 12% SDS-PAGE. Western blot analysis was performed according to standard protocols (Harlow and Lane, E. Harlow, and D. Lane, Cold Spring Harbour Laboratory Press, Cold Spring Harbour, N.Y., (1988)). HES-1 antibody was used at a dilution of 1:1000. The PCNA (C-10) antibody was from Santa Cruz and used at 1:1000. Donkey, anti-rabbit and sheep anti-mouse IgG HRP conjugated antibody (Amersham) were used at 1:10000. Antibody binding was visualised using ECL, Super Signal (Pierce).

histone acetylation = conditions: MCF-7 breast cancer cells, Pasqualini et al (1989); cited from earlier work
[3] = tested on: proliferating cell nuclear antigen (PCNA); assay: PCNA Western blot on nuclear extracts of tet-regulated FLAG HES-1 T47D cells; type: cell-based
Experimental: (§3) FIG. 2 illustrates a proliferation assay T47D cells stably transfected with tetracycline regulated FLAG HES-1 expression. (A) Relative proliferation of two different clones HES-1(1) and HES-1(2) with inducible FLAG HES-1 expression, and two control clones. Tetracycline at 1 μg/ml and 17β-estradiol at 10 nM were used when stated. Data represents an average of six independent measurements. (B) Western blot of endogenous HES-1 and FLAG HES-1 expression in HES-1(1) and HES-1(2) cell lines with antibody against HES-1. PCNA Western blot on same extracts 50 μg of nuclear protein was used;
as §2

T47D breast cancer cells = assay: Proliferation assay, T47D cells stably transfected with tetracycline regulated FLAG HES-1 expression; type: cell-based
Experimental: as §3, §1
A proliferation determination kit from BioThema (A. Lundin, Methods Enzymol 305, 346-370 (1999)). The kit is based on measuring ATP and since the ATP level is constant between cells this can be used to evaluate the number of cells. The cells were grown on 24 well plates at 1000 cells/well. Treatment with hormone was in phenol red-free medium supplemented with 10% DCC treated fetal calf serum. […] Luciferase activity was measured using a Berthold luminometer.

HES-1 [4] = assay: All-trans retinoic acid effect on 17β-estradiol-dependent down regulation of HES-1 expression in MCF-7 cells (Western blot); type: cell-based; conditions: 1 μM all-trans retinoic acid, 17β estradiol 0.1 and 1 nM, 3 days
Experimental: MCF-7 cells were grown on 150 mm plates to 70% confluency in DME medium supplemented with 10% FBS. The medium was then changed to phenolAred free DME supplemented with DCC treated FBS to which 17β estradiol 0.1 and 1 nM respectively and 1 μM of all-trans retinoic acid was added individually or in combination. The plates were then incubated for 3 days in a humidified incubator at 37° C. and 5% CO2. Nuclear extract was produced according to Schreiber et al (E. Schreiber et al (1989) Nucleic Acids Res 17: 6419). 50 μg of this nuclear extract was then run on SDS-PAGE and blotted over to nitrocellulose membrane Hybond C super (Amersham). HES-1 protein was then detected using HES-1 antibody.

T1 sequence (Q92731 whole entry, species assumed): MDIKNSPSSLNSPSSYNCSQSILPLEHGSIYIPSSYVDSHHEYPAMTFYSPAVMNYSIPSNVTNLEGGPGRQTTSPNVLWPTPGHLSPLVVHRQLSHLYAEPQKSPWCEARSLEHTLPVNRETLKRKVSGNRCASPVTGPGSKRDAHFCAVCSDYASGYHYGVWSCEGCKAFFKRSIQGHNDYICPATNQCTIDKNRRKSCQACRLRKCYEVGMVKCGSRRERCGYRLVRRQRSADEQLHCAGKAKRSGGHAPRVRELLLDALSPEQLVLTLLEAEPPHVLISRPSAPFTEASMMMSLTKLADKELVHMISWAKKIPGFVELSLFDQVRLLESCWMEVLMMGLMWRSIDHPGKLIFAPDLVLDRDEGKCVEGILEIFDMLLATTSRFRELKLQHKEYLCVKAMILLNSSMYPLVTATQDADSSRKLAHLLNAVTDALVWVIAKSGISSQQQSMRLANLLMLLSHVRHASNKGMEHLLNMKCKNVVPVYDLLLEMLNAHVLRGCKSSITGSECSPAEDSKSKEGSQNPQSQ

In the case of `CC(/C=C/C(=O)NO)=C\[C@@H](C)C(=O)c1ccc(N(C)C)cc1` [trichostatin A], the CMV promoter activity (CMV promoter) is listed as “induce”, the “17β-estradiol response on addition of TSA in combination with HES-1” value (ERβ) is listed as “no significant difference” and the “makes 4OH tamoxifen into an effective agonist on ERE TATA LUC” value ([1]; COS-7 cells treated with 5 ng/ml trichostatin A for 8 hrs) is listed as “same result”. The “17β-estradiol response on addition of TSA together with HES-1” value ([1]; COS-7 cells, ERα, FIG. 8) was “much larger response”.

In the case of `CC/C(=C(\c1ccc(O)cc1)c1ccc(OCCN(C)C)cc1)c1ccccc1` [4OH tamoxifen], the “effect on 17β-estradiol-mediated down regulation of HES-1 protein” value (from here on “effect … of HES-1 protein”) (HES-1 [2]) is reported as “prevented”.

In the case of `C[C@]12CC[C@@H]3c4ccc(O)cc4C[C@@H](CCCCCCCCC[S+]([O-])CCCC(F)(F)C(F)(F)F)[C@H]3[C@@H]1CC[C@@H]2O` (stereo partly drawn) [ICI 182,780], the “effect … of HES-1 protein” value (HES-1 [2]) is reported as “prevented”.

In the case of `C[C@]12CC[C@@H]3c4ccc(O)cc4CC[C@H]3[C@@H]1CC[C@@H]2O` [17β-estradiol], the histone acetylation (histone acetylation) is given as “decreases”, the “regulation of proliferation marker PCNA” value ([3]; absence of exogenous FLAG-HES-1 expression) is given as “upregulated twofold” and the “regulation of proliferation marker PCNA” value ([3]; presence of exogenous FLAG-HES-1) is given as “no regulation”. The stimulation of proliferation (T47D breast cancer cells; absence of tetracycline (with induced HES-1 expression), 17β-estradiol 10 nM) was “no 17β-estradiol stimulated proliferation”, the stimulation of proliferation (T47D breast cancer cells; presence of tetracycline (without induced HES-1 expression), 17β-estradiol 10 nM) was “two-fold stimulation” and the stimulation of proliferation (T47D breast cancer cells; two control cell lines with tetracycline-regulated vector lacking FLAG-HES-1) was “exhibited 17β-estradiol-stimulated proliferation”. For the same compound, the “expressed protein levels of HES-1” value (HES-1 [2]; MCF-7 breast cancer cells) was “suppress”, the “17β-estradiol-mediated suppression of HES-1” value (HES-1 [2]; MDA-MB-231 breast cancer cells (lack ERα)) was “lack of 17β-estradiol-mediated suppression” and the “expressed protein levels of HES-1” value (HES-1 [2]; T47D breast cancer cells) was “suppress”.

With `CC1=C(/C=C/C(C)=C/C=C/C(C)=C/C(=O)O)C(C)(C)CCC1` [all-trans retinoic acid] the “effect on 17β-estradiol-dependent down regulation of HES-1 expression” value (HES-1 [4]) was “inhibits”.

In the case of `CCCC(=O)O.COc1cccc(C#CCON=C2CN3CCC2C3)c1` (stereo not drawn) [n-butyrate], the CMV promoter activity (CMV promoter) is given as “induce”.

For `O=C(c1ccc(OCN2CCCCC2)cc1)c1c(-c2ccc(O)cc2)sc2cc(O)ccc12` [raloxifen], the “effect … of HES-1 protein” value (HES-1 [2]) was “prevented”.
